Experimental findings from US20060234987A1, “Neuroprotective benzo 1 3 oxathiol 2 ones” (priority 2003, published 2006) are described below.

SMILES strings stand for the structures.

Series [1] relates to SCG neurons. The series can be described thus: Protection of SCG neurons from anti-NGF killing. The format is cell-based, Sprague Dawley rats. The settings on record: Rattus norvegicus, Neuron; anti-NGF antibody, 48 hours, Alamar Blue viability; read-out: IC50, rescue from anti-NGF killing of cultured SCG neurons. Here is the method:
Neurotrophins are critical to the growth, development, and survival of small fiber neurons of the PNS. SCG neurons are neurons of the PNS that undergo apoptosis upon NGF withdrawal. In a typical experiment SCG neurons are cultured in the presence of NGF, which induces survival and neurite out-growth. After 5 days the NGF is removed by either the addition of anti-NGF polyclonal antibody (Sigma) or by repeated washings (4 times) with NGF free media, resulting in the apoptosis of up to 90% of the neurons after 48 hours, as measured by MTS staining. The addition of selected compounds of Formula I to the final cellular media provides upwards of 100% protection, at drug concentrations ranging from 10 to 50 μM (see Example 62).
Protection of SCG neurons from anti-NGF killing. SCG neurons were isolated from day 1 neonatal Sprague Dawley rats, plated at a cell density of 5,000 cells/well, and incubated in Biowhittaker Ultraculture containing 1% Penstrep, 1% L-glutamine, 0.7% ARAC, 3% rat serum, and NGF (50 ng/mL, Calomone Labs), at 37° C., under a 5% CO2 atmosphere. After 4 days the cells were treated with anti-NGF antibody (Sigma). At this time compound was added and the cells were maintained serum and NGF free for 48 hours, at which time viability of the neurons was assessed using Alamar Blue (Medicorp) staining. Table 3 summarizes selected IC50 values from compounds tested using this protocol.

For series [2], the system named is SCG neurons. The series can be described thus: In vitro protection of SCG neurons from Taxol killing. The format is cell-based, Sprague Dawley rats. The settings on record: Rattus norvegicus, Neuron; Taxol 50 ng/mL, 48 hours, MTS viability; read-out: IC50, rescue from Taxol killing of SCG neurons. The text has this:
Taxol™ is regularly used in the treatment of breast and other cancers. Taxol™ binds to the cyto-skeletal protein tubulin, thereby inhibiting normal microtubular […] and inducing cellular apoptosis. Despite its potency as an anti-tumour agent, Taxol™ is also toxic to neurons, inducing dose limiting peripheral neuropathies. The addition of Taxol™ to cultured SCG neurons induces the degradation or loss of upwards of 80% of the neurons. The addition of selected compounds of Formula I to the cellular media, concurrently with Taxol™, protects upwards of 100% of the neurons, at drug concentrations ranging from 3 to 50 μM (see Example 63).
In Vitro Protection of SCG neurons from Taxol killing. SCG neurons were isolated from day 1 neonatal Sprague Dawley rats, plated at a cell density of 10,000 cells/well, and incubated in Biowhittaker Ultraculture containing 1% Penstrep, 1% L-glutamine, 0.7% ARAC, 3% rat serum, and NGF (50 ng/mL, Calomone Labs) at 37° C., under a 5% CO2 atmosphere. After 5 days the cells were treated with compound and Taxol™ (50 ng/mL). Viability of neurons was assessed 48 hours later using MTS (Promega) staining. Table 4 summarizes selected IC50 values from compounds tested using this protocol. Also, see FIG. 1 for compound protection against Taxol killing.

Series [3] is described as follows: Conversion of esters and carbamates to phenol in microsomal fractions. The format is in vitro ADME. To be noted: incubated with microsomal fractions, standard conditions. The procedure: The phenolic moiety observed in many of the compounds represented by Formula I may be converted to esters, carbamates, thiocarbamates and sulfonates. The Applicant has shown that both esters and carbamates are rapidly converted to the corresponding phenol when incubated in the presence of microsomal fractions using standard conditions (Cresteil, T., et al. Am. Soc. Pharm. Exper. Therapeutics, 2002, 30, 438-445). These microsomal fractions contain various active esterase and P450 oxidative enzymes. […] Esters and carbamates of this type allow for the preparation of various novel pro-drugs which display increased water solubility, stability, formulation, and pharmacokinetic profiles. The carbamates disclosed in U.S. Pat. No. 4,349,685 are limited to lower alkyl, substituted aryl, haloalkyl, carbalkoxyalkene or an alkyl carbonyloxyalkylene group. The preferred embodiments of this disclosure include esters and carbamates represented by Formula I, where the carbamate or ester moiety includes substituted lower alkyl, heteroaryl, substituted heteroaryl moieties which contain a basic nitrogen, capable of increasing the water solubility of said compound via an acid/base salt (typified by compounds 55 and 61).

As for `O=C(Oc1cc(-c2ccc(-c3ccccc3)cc2)c2oc(=O)sc2c1)c1cccnc1` [Compound 55, 5-(3-pyridylcarbonyloxy)-7-biphenylbenzo[1,3]oxathiol-2-one], the IC50 in series [1] is 7 µM; in series [2], 2 µM. For the same molecule, the “conversion to parent phenol in microsomal fractions” value in series [3] is on record as “rapidly converted to their parent phenols”.
